In paper PMC7616463, “Peptidic boronic acid Plasmodium falciparum SUB1 inhibitors with improved selectivity over human proteasome” (Journal of medicinal chemistry, 2024):
Where “and” joins values, the source holds several entries; their conditions need not be identical. Equal entries are not always repeated. Where two headings read alike, the source gives them in different places.

Tests used:
[1] = test system: P. falciparum line 1AC5 (8-10-fold reduced PfSUB1); experiment: Parasite growth assay, PfSUB1 knock-down 1AC5 line; format: cell-based, Plasmodium falciparum; details: for EC50: Plasmodium falciparum, 96 h, read-out: EC50 parasite growth, 1AC5 line
Text: (§1) The DiCre-expressing P. falciparum line B11 (derived from a 3D7 background) has been described in full previously.[45] To generate a mutant line selectively expressing reduced levels of PfSUB1, we exploited the anhydrotetracycline (aTc)-inducible TetR aptamer system described by Niles and colleagues[46] and subsequently adapted by Rajaram et al.[47] Briefly, the B11 line was first modified by the incorporation into the genomic Pfs47 locus of a cassette for constitutive expression of a TetR-DOZI fusion protein. The 3’ flanking region of the SUB1 gene was then modified by incorporation of 10 Tet repressor-binding aptamers, following by limiting dilution cloning to obtain a genetically homogenous line called 1AC5. […] Complete details of the characterization of this parasite line will be provided in a separate manuscript.
(§2) The effects of test compounds on in vitro growth of the B11 and 1AC5 P. falciparum lines was determined by flow cytometry as described previously.[48] Briefly, synchronous ring-stage parasites at 0.1% parasitaemia and 2% haematocrit were dispensed into flat-bottomed 96-well culture plates (200 ul per well) each containing 1 ul of appropriate serial dilutions of boronic acid or control antimalarial compounds in DMSO. Control wells contained DMSO only. Following incubation in sealed, humidified gassed chambers at 37°C for 96 h to allow the parasites to undergo two entire cycles of erythrocytic growth, cells were fixed, stained with SYBR green and analysed by flow cytometry on a BD FACSVerse™ using BD FACSuite™ software. Data were analysed using FlowJo software. EC50 values and statistical data were determined from dose-response curves generated using GraphPad Prism 10 (GraphPad Software).

[2] = test system: P. falciparum line B11; experiment: Parasite growth assay, wild-type B11 line; format: cell-based; details: Plasmodium falciparum, 96 h, read-out: EC50 parasite growth, B11 line
Text: as §1, with “To generate a mutant line selectively expressing reduced levels of PfSUB1, we exploited the anhydrotetracycline (aTc)-inducible TetR aptamer system described by Niles and colleagues[46] and subsequently adapted by Rajaram et al.[47]” left out
as §2

[3] = target: T1, recombinant PfSUB1 (rPfSUB1) (Plasmodium falciparum, UniProt Q8I0V0); experiment: PfSUB1 enzyme assay (recombinant PfSUB1, fluorogenic peptide substrate); format: biochemical
T1 construct: made in house
T1 sequence (Q8I0V0 218-688): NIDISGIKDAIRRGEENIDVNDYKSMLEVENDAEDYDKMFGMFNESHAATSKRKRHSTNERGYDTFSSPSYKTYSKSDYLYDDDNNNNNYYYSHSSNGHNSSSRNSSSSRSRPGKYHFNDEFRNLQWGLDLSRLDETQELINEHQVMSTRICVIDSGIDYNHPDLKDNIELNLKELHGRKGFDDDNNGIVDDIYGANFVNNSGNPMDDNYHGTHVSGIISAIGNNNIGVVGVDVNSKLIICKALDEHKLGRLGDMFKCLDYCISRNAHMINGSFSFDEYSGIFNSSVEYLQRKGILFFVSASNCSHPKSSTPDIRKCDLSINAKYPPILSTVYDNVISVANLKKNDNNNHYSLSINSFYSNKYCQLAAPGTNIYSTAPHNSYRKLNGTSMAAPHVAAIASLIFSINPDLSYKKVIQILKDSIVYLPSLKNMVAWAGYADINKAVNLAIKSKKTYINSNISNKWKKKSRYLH
Protocol: The proteolytic activity of rPfSUB1 was monitored by the cleavage of the fluorogenic peptidic substrate SERA4st1F-6R12 (Ac-[…]-OH) and has been described previously.[28] Briefly, chymotrypsin treated rPfSUB1 (expressed and purified as described before […] was stored at −80 °C as a 228 U/mL stock in 20 mM Tris−HCl pH 8.2, 150 mM NaCl, 10% glycerol, and diluted for use (1:500) in reaction buffer (20 mM Tris−HCl pH 8.2, 150 mM NaCl, 12 mM CaCl2, 25 mM CHAPS). Peptidic boronic acid inhibitors were dissolved in 100% DMSO at 20 mM, then further diluted in DMSO to generate stock solutions ranging from 500 to 0.01 μM and then used diluted 1:100 in the enzyme reactions. All reactions were performed in wells of white 96-well microwell plates (Nunc); 50 μL diluted rPfSUB1 was preincubated for 5 min with 1 μL each of the serially diluted boronic acid inhibitors, followed by addition of 50 μL substrate solution (0.1 μM final). Subsequent fluorescence increase was continuously monitored using a SpectraMax M5e plate reader and SoftMax Pro-6.3 software, with readings taken every 3 min for 60 min using excitation and emission values of 552 and 580 nm, respectively. […] All experiments were performed in duplicate.

[4] = test system: HepG2 cells; experiment: Mammalian cell cytotoxicity assay (resazurin); format: cell-based; details: for CC50 (concentration that reduced cell viability by 50%): HepG2, 48 h treatment, resazurin, triplicate, tested up to 30 μM (1a), 200 μM (4c), 150 μM (tipifarnib)
Protocol: HepG2 cells were cultured in Dulbecco’s Modified Eagle Medium with F12 GlutaMAX (DMEM/F12 GlutaMAX) (Gibco) supplemented with 10% (v/v) heat-inactivated foetal calf serum (FCS), 1% L-glutamine and 1% penicillin-streptomycin (10,000 U/ml), and maintained in a humidified 5% CO2 incubator at 37°C. The culture medium was changed every 2-3 days and cells were passaged when a confluency of 75-80% was reached. At passage 2 or above, HepG2 cells were harvested using 0.25% trypsin-0.53 mM EDTA (Gibco). Cell counts and cell viability were determined by an automated cell counting machine (vi-CELL, Beckman) and seeded at a density of 1x10^4-5x10^5 cells per well in a transparent flat-bottom 96-well plate (Corning), and maintained in a humidified 5% CO2 incubator at 37°C. […] As a vehicle control, 1% DMSO was used. After 48 hs, media was removed and replaced with 100 μl media containing 10% resazurin solution (Invitrogen) and incubated for 4 h at 37°C in 5% CO2. After 4 h, the solution was transferred to an opaque 96-well plate (Corning) to measure reduction of resazurin to resorufin using a SpectraMax M5 microplate reader (Molecular Devices LLC) (ex. 560 nm, em. 590 nm). Cells without treatment compounds were used to determine 100% viability. Cell viability was determined by measuring fluorescence as a % of solvent control. Concentration viability response curves, CC50 values, mean CC50 value and standard error were generated using GraphPad Prism 10 (GraphPad Software).

[5] = test system: human 20S proteasome (H20S), chymotrypsin-like β5 activity; experiment: Human 20S proteasome kinetic assay (chymotrypsin-like β5 activity); format: biochemical; details: PfSUB1 vs H20S inhibition
Protocol: (§3) The fluorescent Proteasome substrate LLVY-R110 (ex: 490 nm, Em:525 nm) (#MAK172, Sigma-Aldrich) was used to measure the chymotrypsin-like activity (β5) of the human 20S proteasome and was prepared according to the activity assay kit instructions. Cleavage of this peptide generated intense green fluorescence due to the R110 group and was monitored at 520-530 nm with excitation at 480-500 nm. The purified human 20S proteasome (BML-PW8720-0050, EnzoSciences), stored at 1mg/ml in 20 mM Tris-HCl pH 7.2, 1mM EDTA, 1mM DTT 1mM NaN3, 50% glycerol was diluted in TRIS-buffered saline (TBS, pH 7.4) to an intermediate concentration of 0.44 μM. […] The reactions were performed in white 96-well fluorescent microtiter-plate format (Nunc). The Substrate solution was added first (100 μl), followed by 1 μl of the inhibitor (50 μM intermediate stock) and 1 μl of the H20S proteasome at 0.44 μM. The IC50s were determined for a selection of potent PfSUB1 inhibitors. After sequential dilution of the inhibitors in 100% DMSO, 1 μl of each dilution was used in a 100 μl reaction containing the fluorescent substrate. The reaction was initiated by the addition of 1 μl of the 20S proteasome intermediate stock solution. The fluorescence increase was monitored using a SpectraMax M5e plate reader and SoftMax Pro-6.3 software Measure activity on a plate reader (ex: 490 nm, Em: 525 nm) with the photomultiplier tube (PMT) set to medium with readings every 3 min for one hour. All measurements were done in duplicate. The progress curves were plotted within GraphPad Prism 9.5.0.

[6] = target: T2, human 20S proteasome (H20S), chymotrypsin-like β5 activity (Homo sapiens, UniProt P20618+P28074); experiment: as above; format: biochemical; details: purified human 20S proteasome, β5 activity, substrate LLVY-R110, fluorescence; duplicate; read-out: IC50, nM H20S inhibition
T2 construct: variant as stated: H20S
Protocol: as §3

[7] = 2 erythrocytic cycles, SYBR green flow cytometry, triplicate, 95% confidence interval in parentheses

Row | Structure (SMILES) | EC50 [1] [µM] | EC50 [2] [µM] | IC50 [3] [µM] | CC50 (concentration that reduced cell viability by 50%) [4] [µM] | factor by which less toxic to HepG2 than 1a ([4]; HepG2 CC50 of 4c vs 1a) [fold] | selectivity versus H20S [5] [fold] | fold higher sensitivity of 1AC5 line than of B11 line ([1]; growth inhibition, 1AC5 vs wild-type B11) | EC50 [2, 7] [µM] | IC50 [6] [nM]
1 | CCN(CC)CCCC(C)Nc1ccnc2cc(Cl)ccc12 (stereo not shown) [CQ, chloroquine, reference compound] | 0.00574 | 0.00536 |  |  |  |  |  |  | 
2 | CC[C@H](C)[C@H](NC(=O)[C@@H](NC(=O)c1cc(C)cc(C)c1)C1CCCC1)C(=O)NCC(=O)N[C@H]1CCC(=O)OB1O [4c, N-((S)-1-cyclopentyl-2-(((2S,3S)-1-((2-(((R)-2-hydroxy-6-oxo-1,2-oxaborinan-3-yl)amino)-2-oxoethyl)amino)-3-methyl-1-oxopentan-2-yl)amino)-2-oxoethyl)-3,5-dimethylbenzamide] | 0.16 |  | 0.0153 ± 0.0001 | 296 | 27 | > 60 | 13 fold and ~ 13 fold | 2.26 | 
3 | Cn1cncc1[C@@](N)(c1ccc(Cl)cc1)c1ccc2c(c1)c(-c1cccc(Cl)c1)cc(=O)n2C [Tipifarnib, reference compound] |  |  |  | 30 |  |  |  |  | 
4 | CC(=O)N[C@H](C(=O)N[C@H](C(=O)NCC(=O)N[C@@H](C)B(O)O)C(C)C)C1CCCC1 [1a] | 0.13 |  |  | 11 |  |  |  | 0.15 | 32.8 ± 1.7
5 | C[C@H]1[C@H](OC(=O)CCC(=O)O)O[C@@H]2O[C@@]3(C)CC[C@H]4[C@H](C)CC[C@@H]1[C@@]24OO3 [Artesunate, artesunate, reference compound] | 0.00487 |  |  |  |  |  |  | 0.0037 | 
